Assay results published in the supplement of paper PMC10307832.

Tests used:
Test in all cases: relative viability (nuclei count vs DMSO), 5 days (fraction); higher = more cells survive
[1] = compound: CCc1c2c(nc3ccc(OC(=O)N4CCC(N5CCCCC5)CC4)cc13)-c1cc3c(c(=O)n1C2)COC(=O)[C@]3(O)CC [Irinotecan] + O=C(CCCCCCC(=O)Nc1ccccc1)NO [Vorinostat] (partner 1 µM)
Summary of the method: (§1)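 One day after seeding in 1536-well plates, lung cancer cell lines were dosed by pin tool. Dosing was either single-drug or a fixed anchor-drug dose plus five library-drug doses (not always all listed) in √10 steps. After 5 days, nuclei were stained in one fix-and-stain step and counted on 4× images, and relative viability is the nuclei count of treated wells over that of vehicle wells, given as the median of duplicate plates.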

[2] = compound: CC[C@@H](C)CNCC(=O)N1CCC2=C([C@@H]1COC3=CC=CC(=C3)C)C=CS2 [RU-SKI 43] + O=C(c1cc(Cc2n[nH]c(=O)c3ccccc23)ccc1F)N1CCN(C(=O)C2CC2)CC1 [Olaparib] (partner 8 µM)
Summary of the method: as §1

[3] = compound: CC[C@@H](C)CNCC(=O)N1CCC2=C([C@@H]1COC3=CC=CC(=C3)C)C=CS2 [RU-SKI 43] + O=C(CCCCCCC(=O)Nc1ccccc1)NO [Vorinostat] (partner 1 µM)
Summary of the method: as §1

[4] = compound: CC[C@@H](C)CNCC(=O)N1CCC2=C([C@@H]1COC3=CC=CC(=C3)C)C=CS2 [RU-SKI 43] + NC(=O)Nc1cc(-c2cccc(F)c2)sc1C(=O)N[C@H]1CCCNC1 [AZD7762] (partner 0.2 µM)
Summary of the method: as §1

Cell Line: EKVX
- relative viability ([1]; first compound 2 µM): 0.52
- relative viability ([1]; first compound 6.325 µM): 0.43
- relative viability ([1]; first compound 20 µM): 0.398
- relative viability ([2]; first compound 0.1 µM): 0.716
- relative viability ([2]; first compound 0.3162 µM): 0.971
- relative viability ([2]; first compound 1 µM): 0.866
- relative viability ([2]; first compound 3.162 µM): 1.04
- relative viability ([2]; first compound 10 µM): 0.849
- relative viability ([3]; first compound 0.1 µM): 0.658
- relative viability ([3]; first compound 0.3162 µM): 0.614
- relative viability ([3]; first compound 1 µM): 0.707
- relative viability ([3]; first compound 3.162 µM): 0.643
- relative viability ([3]; first compound 10 µM): 0.632
- relative viability ([4]; first compound 0.1 µM): 0.605
- relative viability ([4]; first compound 0.3162 µM): 0.714
- relative viability ([4]; first compound 1 µM): 0.874
- relative viability ([4]; first compound 3.162 µM): 0.707
- relative viability ([4]; first compound 10 µM): 0.658

Cell Line: HCC-15
- relative viability ([1]; first compound 0.6325 µM): 0.452
- relative viability ([1]; first compound 2 µM): 0.333
- relative viability ([1]; first compound 6.325 µM): 0.252
- relative viability ([1]; first compound 20 µM): 0.197
- relative viability ([2]; first compound 0.1 µM): 0.71
- relative viability ([2]; first compound 0.3162 µM): 0.874
- relative viability ([2]; first compound 1 µM): 0.755
- relative viability ([2]; first compound 3.162 µM): 0.772
- relative viability ([2]; first compound 10 µM): 0.627
- relative viability ([3]; first compound 0.1 µM): 0.808
- relative viability ([3]; first compound 0.3162 µM): 0.932
- relative viability ([3]; first compound 1 µM): 0.881
- relative viability ([3]; first compound 3.162 µM): 0.839
- relative viability ([3]; first compound 10 µM): 0.869
- relative viability ([4]; first compound 0.1 µM): 1.12
- relative viability ([4]; first compound 0.3162 µM): 1.17
- relative viability ([4]; first compound 1 µM): 1.15
- relative viability ([4]; first compound 3.162 µM): 1.24
- relative viability ([4]; first compound 10 µM): 1.19

Cell Line: LXF-289
- relative viability ([1]; first compound 0.6325 µM): 0.724
- relative viability ([1]; first compound 2 µM): 0.688
- relative viability ([1]; first compound 6.325 µM): 0.41
- relative viability ([1]; first compound 20 µM): 0.195
- relative viability ([2]; first compound 0.1 µM): 1.09
- relative viability ([2]; first compound 0.3162 µM): 1.09
- relative viability ([2]; first compound 1 µM): 1.17
- relative viability ([2]; first compound 3.162 µM): 1.16
- relative viability ([2]; first compound 10 µM): 0.948
- relative viability ([3]; first compound 0.1 µM): 0.725
- relative viability ([3]; first compound 0.3162 µM): 0.784
- relative viability ([3]; first compound 1 µM): 0.796
- relative viability ([3]; first compound 3.162 µM): 0.634
- relative viability ([3]; first compound 10 µM): 0.84
- relative viability ([4]; first compound 0.1 µM): 1.13
- relative viability ([4]; first compound 0.3162 µM): 1.11
- relative viability ([4]; first compound 1 µM): 1.14
- relative viability ([4]; first compound 3.162 µM): 1.09
- relative viability ([4]; first compound 10 µM): 1.03

Cell Line: LK-2
- relative viability ([1]; first compound 0.6325 µM): 0.363
- relative viability ([1]; first compound 2 µM): 0.264
- relative viability ([1]; first compound 6.325 µM): 0.256
- relative viability ([1]; first compound 20 µM): 0.242
- relative viability ([2]; first compound 0.1 µM): 0.808
- relative viability ([2]; first compound 0.3162 µM): 0.639
- relative viability ([2]; first compound 1 µM): 0.788
- relative viability ([2]; first compound 3.162 µM): 0.612
- relative viability ([2]; first compound 10 µM): 0.75
- relative viability ([3]; first compound 0.1 µM): 0.294
- relative viability ([3]; first compound 0.3162 µM): 0.265
- relative viability ([3]; first compound 1 µM): 0.363
- relative viability ([3]; first compound 3.162 µM): 0.301
- relative viability ([3]; first compound 10 µM): 0.224
- relative viability ([4]; first compound 0.1 µM): 0.342
- relative viability ([4]; first compound 0.3162 µM): 0.372
- relative viability ([4]; first compound 1 µM): 0.486
- relative viability ([4]; first compound 3.162 µM): 0.49
- relative viability ([4]; first compound 10 µM): 0.468

Cell Line: NCI-H2126
- relative viability ([1]; first compound 0.6325 µM): 0.4
- relative viability ([1]; first compound 2 µM): 0.616
- relative viability ([1]; first compound 6.325 µM): 0.335
- relative viability ([1]; first compound 20 µM): 0.292
- relative viability ([2]; first compound 0.1 µM): 0.903
- relative viability ([2]; first compound 0.3162 µM): 1.07
- relative viability ([2]; first compound 1 µM): 0.936
- relative viability ([2]; first compound 3.162 µM): 0.845
- relative viability ([2]; first compound 10 µM): 0.865
- relative viability ([3]; first compound 0.1 µM): 0.793
- relative viability ([3]; first compound 0.3162 µM): 0.864
- relative viability ([3]; first compound 1 µM): 0.819
- relative viability ([3]; first compound 3.162 µM): 0.906
- relative viability ([3]; first compound 10 µM): 0.781
- relative viability ([4]; first compound 0.1 µM): 1.05
- relative viability ([4]; first compound 0.3162 µM): 1.17
- relative viability ([4]; first compound 1 µM): 1.09
- relative viability ([4]; first compound 3.162 µM): 1.05
- relative viability ([4]; first compound 10 µM): 1.04

Cell Line: NCI-H596
- relative viability ([1]; first compound 0.6325 µM): 0.587
- relative viability ([1]; first compound 2 µM): 0.639
- relative viability ([1]; first compound 6.325 µM): 0.728
- relative viability ([1]; first compound 20 µM): 0.737
- relative viability ([2]; first compound 0.1 µM): 0.719
- relative viability ([2]; first compound 0.3162 µM): 0.548
- relative viability ([2]; first compound 1 µM): 0.654
- relative viability ([2]; first compound 3.162 µM): 0.712
- relative viability ([2]; first compound 10 µM): 0.709
- relative viability ([3]; first compound 0.1 µM): 0.853
- relative viability ([3]; first compound 0.3162 µM): 0.534
- relative viability ([3]; first compound 1 µM): 0.669
- relative viability ([3]; first compound 3.162 µM): 0.589
- relative viability ([3]; first compound 10 µM): 0.501
- relative viability ([4]; first compound 0.1 µM): 1.22
- relative viability ([4]; first compound 0.3162 µM): 1.17
- relative viability ([4]; first compound 1 µM): 1.12
- relative viability ([4]; first compound 3.162 µM): 1.29
- relative viability ([4]; first compound 10 µM): 1.05

Cell Line: NCI-H3122
- relative viability ([1]; first compound 0.6325 µM): 0.924
- relative viability ([1]; first compound 2 µM): 0.447
- relative viability ([1]; first compound 6.325 µM): 0.199
- relative viability ([1]; first compound 20 µM): 0.146
- relative viability ([2]; first compound 0.1 µM): 0.623
- relative viability ([2]; first compound 0.3162 µM): 0.64
- relative viability ([2]; first compound 1 µM): 0.663
- relative viability ([2]; first compound 3.162 µM): 0.649
- relative viability ([2]; first compound 10 µM): 0.579
- relative viability ([3]; first compound 0.1 µM): 1.06
- relative viability ([3]; first compound 0.3162 µM): 1.36
- relative viability ([3]; first compound 1 µM): 1.04
- relative viability ([3]; first compound 3.162 µM): 0.467
- relative viability ([3]; first compound 10 µM): 1.06
- relative viability ([4]; first compound 0.1 µM): 0.957
- relative viability ([4]; first compound 0.3162 µM): 1.27
- relative viability ([4]; first compound 1 µM): 1.01
- relative viability ([4]; first compound 3.162 µM): 1.15
- relative viability ([4]; first compound 10 µM): 0.95

Cell Line: NCI-H727
- relative viability ([1]; first compound 0.6325 µM): 1.03
- relative viability ([1]; first compound 2 µM): 0.731
- relative viability ([1]; first compound 6.325 µM): 0.616
- relative viability ([1]; first compound 20 µM): 0.641
- relative viability ([2]; first compound 0.3162 µM): 0.515
- relative viability ([2]; first compound 1 µM): 0.694
- relative viability ([2]; first compound 3.162 µM): 0.67
- relative viability ([2]; first compound 10 µM): 0.624
- relative viability ([3]; first compound 0.3162 µM): 1.13
- relative viability ([3]; first compound 1 µM): 1.13
- relative viability ([3]; first compound 3.162 µM): 1.08
- relative viability ([3]; first compound 10 µM): 1.23
- relative viability ([4]; first compound 0.3162 µM): 0.707
- relative viability ([4]; first compound 1 µM): 0.724
- relative viability ([4]; first compound 3.162 µM): 0.638
- relative viability ([4]; first compound 10 µM): 0.543

Cell Line: NCI-H1355
- relative viability ([1]; first compound 2 µM): 0.578
- relative viability ([1]; first compound 6.325 µM): 0.36
- relative viability ([1]; first compound 20 µM): 0.26
- relative viability ([2]; first compound 0.1 µM): 0.742
- relative viability ([2]; first compound 0.3162 µM): 0.72
- relative viability ([2]; first compound 1 µM): 0.724
- relative viability ([2]; first compound 3.162 µM): 0.797
- relative viability ([2]; first compound 10 µM): 0.775
- relative viability ([3]; first compound 0.1 µM): 0.725
- relative viability ([3]; first compound 0.3162 µM): 0.704
- relative viability ([3]; first compound 1 µM): 0.645
- relative viability ([3]; first compound 3.162 µM): 0.701
- relative viability ([3]; first compound 10 µM): 0.615
- relative viability ([4]; first compound 0.1 µM): 0.711
- relative viability ([4]; first compound 0.3162 µM): 0.724
- relative viability ([4]; first compound 1 µM): 0.801
- relative viability ([4]; first compound 3.162 µM): 0.697
- relative viability ([4]; first compound 10 µM): 0.771
